In patent publication US10183944B2 (Asana Biosciences, LLC, priority 2011, dated 2019):
Counter-ions that a name gives are not always drawn. Like-named read-outs stand apart in the source and are kept apart here.

Columns and labels:
JAK2 = JAK2 (Homo sapiens (Human), UniProt O60674); test: Inhibition of enzymatic JAK2 kinase activity (TR-FRET); format: biochemical; conditions: read-out: IC50 JAK
Summary of the method: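 TR-FRET read-out (Eu antibody donor, Ulight poly Glu-Tyr acceptor, 665/615 nm ratio) after a 60 min RT kinase reaction with ATP, begun following 30 min compound–enzyme preincubation. Stopped by EDTA; inhibition expressed as 100 minus % activity of positive control.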

[1] = biological target: Syk (356-635 amino acids) catalytic domain (Homo sapiens (Human), UniProt P43405); test: Inhibition of enzymatic Syk kinase activity (radiometric); format: biochemical; conditions: read-out: IC50 Syk
Summary of the method: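 Radiometric filter-binding format: 32P transfer from γ-32P-ATP onto pG4T, scintillation-counted after acid washes of P81 paper. Syk kinase domain (356-635), 0.035–7.5 ng per reaction, was exposed to compound for 30 minutes at room temperature before a 10-minute, 30° C. reaction with ATP (100 μM stock). Inhibition derived from counts with versus without compound.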

RBL2H3 cells = test: Degranulation assay: β-hexosaminidase release during immune complex mediated degranulation; format: cell-based, rat; conditions: Rattus norvegicus, RBL-2H3; for inhibition at 1 µM: read-out: Degranulation % inhibition at 1 μM; for EC50: read-out: Degranulation EC50
Protocol: The objective of this assay was to examine by Fluorescence method the effect of compounds on β-hexosaminidase release during immune complex mediated degranulation in RBL2H3 cells. Compounds were tested for their ability to inhibit the ability of this immune complex to mediate β-hexosaminidase release, in an enzyme assay with […] as substrate. […] Emission 460 nm). [table] [table] RBL2H3 cells were maintained in MEM complete media containing 10% FBS at 70%-80% confluence in a mammalian cell culture CO2 incubator with 5% CO2 at 37° C. 2×10^5 cells/well were plated in 1 mL of complete media and incubated for 5 hours for cell attachment. Complete media was replaced with 1 mL of serum free MEM media containing 1.2 μg/mL of anti-DNP rat IgE as sensitizing agent and further incubated overnight with 5% CO2 at 37° C. […] Cells were further stimulated with 5 μg/mL of DNP-BSA for 60 minutes. Plates were centrifuged for 5 minutes at 1000 rpm and 25 μL of culture supernatant was transferred from each assay well into a 96 well black coated plate. 25 μL β-NAG substrate was added to this mixture and incubated at room temperature for 30 minutes. The reaction was terminated with 100 μL of stop solution and fluorescence was monitored. (Excitation 355 nm; Emission 460 nm) See, Sanderson, (2010), Cellular Immunology, 262(1): 28-34 and Silverman, (2006) MCB, 26(5):1826-1838, which are incorporated herein by reference. The % release of β-Hexosaminidase for the test compound was calculated using the following formula: RBL2H3 cells were maintained in MEM complete media containing 10% FBS at 70-80% confluence in a mammalian cell culture CO2 incubator with 5% CO2 at 37° C. 5×10^4 cells/well were plated in 200 μL of complete media containing 0.3 μg/mL of anti-DNP rat IgE as sensitizing agent for 24 hours at 37° C. & 5% CO2. The following day, cells were washed twice with PIPES buffer for 10 minutes at 37° C. and replenished with serum free MEM media. Cells were treated with various concentrations of test compounds (in 0.5% DMSO) for 15 minutes at 37° C. and 5% CO2. The cells were further stimulated with 0.1 μg/mL of DNP-BSA for 45 minutes. The plates were spun for 5 minutes at 2000 rpm and 25 μL of culture supernatant was then transferred from each assay well into a 96 well black coated plate. […] β-NAG substrate was added and incubated at RT for 30 minutes. After incubation with substrate, 150 μL of stop solution was added and fluorescence was monitored. (Excitation 355 nm; Emission 460 nm). See, Yamamoto, JPET, 306(3):1174-1181 (2003) and Taylor, MCB, 15(8): 4149-4157 (1995), which are herein incorporated by reference. Release of β-hexosaminidase during the degranulation process by immune complex mediated FcεRI stimulation is through the SYK pathway. The % inhibition of β-hexosaminidase release by Syk inhibitor gives information with regard to its Syk inhibition potency.

[2] = Assay Protocol A (24 well format)
[3] = Assay Protocol B (96 well format)

JAK2, sequence (O60674 808-1132): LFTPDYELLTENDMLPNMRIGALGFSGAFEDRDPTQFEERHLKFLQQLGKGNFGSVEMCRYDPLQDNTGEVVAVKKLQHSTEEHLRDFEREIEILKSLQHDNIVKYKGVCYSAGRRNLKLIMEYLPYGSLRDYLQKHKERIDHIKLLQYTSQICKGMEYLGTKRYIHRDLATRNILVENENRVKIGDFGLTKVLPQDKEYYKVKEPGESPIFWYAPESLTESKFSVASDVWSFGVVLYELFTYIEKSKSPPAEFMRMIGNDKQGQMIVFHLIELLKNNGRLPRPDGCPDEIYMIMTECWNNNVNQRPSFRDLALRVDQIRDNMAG

| Compound | IC50 (JAK2) | IC50 [1] | EC50 (RBL2H3 cells; [2]) | IC50 ([1]; hydrochloride) | EC50 (RBL2H3 cells; [3]) | inhibition at 1 µM (RBL2H3 cells; [2]) | inhibition at 1 µM (RBL2H3 cells; [3]) |
| --- | --- | --- | --- | --- | --- | --- | --- |
| O=c1[nH]ncc2nc(-c3ccccc3)nc(Nc3ccc(N(CCO)CCO)cc3)c12 [Example 10, 4-(4-(bis(2-hydroxyethyl)amino)phenylamino)-2-phenylpyrimido[4,5-d]pyridazin-5(6H)-one] | < 100 nM | < 50 nM | – | – | – | 100% | – |
| NCC(=O)N1CCN(c2ccc(Nc3nc(-c4ccccc4)nc4cn[nH]c(=O)c34)cc2)CC1 [Example 11, 4-(4-(4-(2-aminoacetyl)piperazin-1-yl)phenylamino)-2-phenylpyrimido[4,5-d]pyridazin-5(6H)-one hydrochloride] | < 100 nM | – | – | < 50 nM | – | 100% | – |
| O=c1[nH]ncc2nc(-c3ccsc3)nc(Nc3ccc(CN4CCNCC4)cc3)c12 [Example 24, 4-(4-(piperazin-1-ylmethyl)phenylamino)-2-(thiophen-3-yl) pyrimido[4,5-d]pyridazin-5(6H)-one hydrochloride] | < 100 nM | < 10 nM | – | – | – | – | 83% |
| O=C(O)C1CC12CCN(c1nc(Nc3ccc(CN4CCNCC4)cc3)c3c(=O)[nH]ncc3n1)CC2 (centres unmarked) [Example 25, 6-(5-oxo-4-(4-(piperazin-1-ylmethyl)phenylamino)-5,6-dihydropyrimido[4,5-d]pyridazin-2-yl)-6-azaspiro[2.5]octane-1-carboxylic acid hydrochloride] | < 100 nM | < 50 nM | – | – | – | 79% | – |
| CCN1CCN(c2ccc(Nc3nc(N4CCOCC4)nc4cn[nH]c(=O)c34)cc2)CC1 [Example 26, 4-(4-(4-ethylpiperazin-1-yl)phenylamino)-2-morpholinopyrimido[4,5-d]pyridazin-5(6H)-one] | < 100 nM | < 10 nM | – | – | – | – | 67% |
| O=c1[nH]ncc2nc(-c3ccc4c(c3)OCO4)nc(Nc3ccc(CN4CCNCC4)cc3)c12 [Example 33, 2-(benzo[d][1,3]dioxol-5-yl)-4-(4-(piperazin-1-ylmethyl)phenylamino) pyrimido[4,5-d]pyridazin-5(6H)-one hydrochloride] | > 100 nM | < 50 nM | – | – | – | – | 58% |
| O=C(O)C1CC12CCN(c1ccc(Nc3nc(-c4ccsc4)nc4cn[nH]c(=O)c34)cc1)CC2 (centres unmarked) [Example 39, 6-(4-(5-oxo-2-(thiophen-3-yl)-5,6-dihydropyrimido[4,5-d]pyridazin-4-ylamino)phenyl)-6-azaspiro[2.5]octane-1-carboxylic acid] | < 50 nM | < 50 nM | – | – | – | – | 100% |
| O=C(O)CC1CCN(c2nc(Nc3ccc(CN4CCNCC4)cc3)c3c(=O)[nH]ncc3n2)CC1 [Example 43, 2-(1-(5-oxo-4-((4-(piperazin-1-ylmethyl)phenyl)amino)-5,6-dihydropyrimido[4,5-d]pyridazin-2-yl)piperidin-4-yl)acetic acid hydrochloride] | < 100 nM | < 50 nM | – | – | – | – | 13% |
| COc1cccc(-c2nc(Nc3ccc(N4CCC5(CC4)CC5C(=O)O)cc3)c3c(=O)[nH]ncc3n2)c1 (centres unmarked) [Example 47, 6-(4-((2-(3-methoxyphenyl)-5-oxo-5,6-dihydropyrimido[4,5-d]pyridazin-4-yl)amino)phenyl)-6-azaspiro[2.5]octane-1-carboxylic acid] | < 100 nM | < 100 nM | – | – | 132 nM | – | 100% |
| O=c1[nH]ncc2nc(N3CCCC3)nc(Nc3ccc(CN4CCNCC4)cc3)c12 [Example 48, 4-((4-(piperazin-1-ylmethyl)phenyl)amino)-2-(pyrrolidin-1-yl)pyrimido[4,5-d]pyridazin-5(6H)-one hydrochloride] | < 100 nM | < 100 nM | – | – | – | – | 100% |
| CCOc1nc(Nc2ccc(CN3CCNCC3)cc2)c2c(=O)[nH]ncc2n1 [Example 50, 2-ethoxy-4-((4-(piperazin-1-ylmethyl)phenyl)amino)pyrimido[4,5-d]pyridazin-5(6H)-one hydrochloride] | > 100 nM | < 10 nM | – | – | – | – | 49% |

Continued, in another order:

| IC50 (JAK2) | IC50 [1] | EC50 (RBL2H3 cells; [2]) | IC50 ([1]; hydrochloride) | EC50 (RBL2H3 cells; [3]) | Compound | inhibition at 1 µM (RBL2H3 cells; [2]) | inhibition at 1 µM (RBL2H3 cells; [3]) |
| --- | --- | --- | --- | --- | --- | --- | --- |
| < 50 nM | < 50 nM | – | – | – | O=c1[nH]ncc2nc(-c3ccccc3)nc(Nc3ccc(N4CCOCC4)cc3)c12 [Example 1, 4-(4-morpholinophenylamino)-2-phenylpyrimido[5,4-d]pyridazin-5(6H)-one] | 85% | – |
| < 50 nM | < 10 nM | 39 nM | – | – | CCN1CCN(c2ccc(Nc3nc(-c4ccccc4)nc4cn[nH]c(=O)c34)cc2)CC1 [Example 5, 4-(4-(4-ethylpiperazin-1-yl)phenylamino)-2-phenylpyrimido[4,5-d]pyridazin-5(6H)-one] | 100% | – |
| < 50 nM | < 50 nM | – | – | – | CCN1CCN(Cc2ccc(Nc3nc(-c4ccccc4)nc4cn[nH]c(=O)c34)cc2)CC1 [Example 6, 4-(4-((4-ethylpiperazin-1-yl)methyl)phenylamino)-2-phenylpyrimido[4,5-d]pyridazin-5(6H)-one] | 50% | – |
| < 10 nM | < 10 nM | – | – | – | O=c1[nH]ncc2nc(-c3ccccc3)nc(Nc3ccc(N4CCNCC4)cc3)c12 [Example 8, 2-phenyl-4-(4-(piperazin-1-yl)phenylamino)pyrimido[4,5-d]pyridazin-5(6H)-one] | 98% | – |
| < 50 nM | < 50 nM | – | – | – | O=c1[nH]ncc2nc(N3CCCCC3)nc(Nc3ccc(CN4CCNCC4)cc3)c12 [Example 30, 4-(4-(piperazin-1-ylmethyl)phenylamino)-2-(piperidin-1-yl)pyrimido[4,5-d]pyridazin-5(6H)-one hydrochloride] | – | 99% |
| < 50 nM | < 50 nM | – | – | 378 nM | O=C(O)CC1CCN(c2ccc(Nc3nc(-c4ccccc4)nc4cn[nH]c(=O)c34)cc2)CC1 [Example 34, 2-(1-(4-(5-oxo-2-phenyl-5,6-dihydropyrimido[4,5-d]pyridazin-4-ylamino)phenyl)piperidin-4-yl)acetic acid] | – | 80% |
| < 50 nM | < 50 nM | – | – | – | O=C(O)C1CCN(Cc2ccc(Nc3nc(-c4ccccc4)nc4cn[nH]c(=O)c34)cc2)CC1 [Example 35, 1-(4-(5-oxo-2-phenyl-5,6-dihydropyrimido[4,5-d]pyridazin-4-ylamino)benzyl)piperidine-4-carboxylic acid] | – | 19% |
| < 10 nM | < 10 nM | – | – | 1 nM | O=c1[nH]ncc2nc(N3CCCCCC3)nc(Nc3ccc(CN4CCNCC4)cc3)c12 [Example 52, 2-(azepan-1-yl)-4-((4-(piperazin-1-ylmethyl)phenyl)amino)pyrimido[4,5-d]pyridazin-5(6H)-one hydrochloride] | – | 100% |
| < 10 nM | < 10 nM | – | – | 13 nM | CC(C)N(c1nc(Nc2ccc(CN3CCNCC3)cc2)c2c(=O)[nH]ncc2n1)C(C)C [Example 54, 2-(diisopropylamino)-4-((4-(piperazin-1-ylmethyl)phenyl)amino)pyrimido[4,5-d]pyridazin-5(6H)-one hydrochloride] | – | 100% |
